According to patent US7476756B2, “Alkyl-, alkenyl- and alkynylcarbamate derivatives, their preparation and their application in therapeutics” (Sanofi-Aventis, priority 2005, dated 2009):

What was measured:
[1] = target: T1, enzyme FAAH (Fatty Acid Amido Hydrolase) (Mus musculus, UniProt O08914); assay: radioenzymatic test of FAAH inhibition (hydrolysis of ((1-3H)ethanolamine)-anandamide, mouse brain membrane homogenates); type: biochemical; details: mouse brain membrane homogenate; 10 μM anandamide; 15 minutes at 25° C.; read-out: IC50 (concentration which inhibits the control enzymatic activity of FAAH by 50%)
T1 construct: The membrane homogenates are prepared at the time of use by homogenization of the tissues with a Polytron; from tissue; host or cells: mouse brain (minus the cerebellum), membrane homogenate
T1 sequence (O08914 1-579): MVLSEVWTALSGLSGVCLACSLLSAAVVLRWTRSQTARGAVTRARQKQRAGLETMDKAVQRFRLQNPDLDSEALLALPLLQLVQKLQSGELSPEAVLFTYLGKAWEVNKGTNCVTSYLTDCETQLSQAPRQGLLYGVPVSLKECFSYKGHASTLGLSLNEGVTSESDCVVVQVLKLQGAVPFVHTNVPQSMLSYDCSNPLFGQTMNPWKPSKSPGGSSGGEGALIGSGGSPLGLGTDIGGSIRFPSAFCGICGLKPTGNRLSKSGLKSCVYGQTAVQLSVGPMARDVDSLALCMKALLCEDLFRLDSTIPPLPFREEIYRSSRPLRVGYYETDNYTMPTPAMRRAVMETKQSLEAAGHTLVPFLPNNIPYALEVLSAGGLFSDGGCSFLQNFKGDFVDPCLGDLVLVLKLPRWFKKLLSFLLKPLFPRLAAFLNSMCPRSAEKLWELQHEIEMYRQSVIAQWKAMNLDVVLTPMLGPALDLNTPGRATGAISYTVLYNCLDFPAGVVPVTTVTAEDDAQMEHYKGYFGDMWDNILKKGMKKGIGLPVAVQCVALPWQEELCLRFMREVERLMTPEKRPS
Protocol: The compounds of the invention have formed the subject of pharmacological trials which make it possible to determine their inhibitory effect on the enzyme FAAH (Fatty Acid Amido Hydrolase).
Thus, mouse brains (minus the cerebellum) are removed and stored at −80° C. The membrane homogenates are prepared at the time of use by homogenization of the tissues with a Polytron in a 10 mM Tris-HCl buffer (pH 8) comprising 150 mM NaCl and 1 mM EDTA. The enzymatic reaction is subsequently carried out in 70 μl of buffer comprising bovine serum albumin free from fatty acids (1 mg/ml). The test compounds, at various concentrations, the ((1-^3H)ethanolamine)-anandamide (specific activity of 15-20 Ci/mmol), diluted to 10 μM with non-radiolabelled anandamide, and the membrane preparation (400 μg of frozen tissue per assay) are successively added. After 15 minutes at 25° C., the enzymatic reaction is halted by addition of 140 μl of chloroform/methanol (2:1). The mixture is stirred for 10 minutes and is then centrifuged at 3500 g for 15 minutes. An aliquot (30 μl) of the aqueous phase comprising the (1-^3H)ethanolamine is counted by liquid scintillation.

With CCCCCNC(=O)OC(C)C(N)=O (stereo not drawn) [Compound 1, 2-Amino-1-methyl-2-oxoethyl (pent-1-yl)carbamate] as the compound, how does the melting point read?
Its melting point is 132 to 134 °C.

With CCC/C=C/CNC(=O)OCC(=O)NC [Compound 2, 2-(Methylamino)-2-oxoethyl ((2E)-hex-2-en-1-yl)carbamate] as the compound, how does the melting point read?
Its melting point is 85 to 87 °C.

Which melting point does the source give for CCC/C=C/CNC(=O)OCC(N)=O [Compound 3, 2-Amino-2-oxoethyl ((2E)-hex-2-en-1-yl)carbamate] here?
The melting point was 126 to 128 °C.

With CCC/C=C\CNC(=O)OCC(N)=O [Compound 4, 2-Amino-2-oxoethyl ((2Z)-hex-2-en-1-yl)carbamate] as the compound, how does the melting point read?
Its melting point is 102 to 104 °C.

Which melting point does the source give for CC/C=C/CCNC(=O)OCC(N)=O [Compound 6, 2-Amino-2-oxoethyl ((3E)-hex-3-en-1-yl)carbamate] here?
The melting point was 138 to 140 °C.

Which melting point does the source give for CC/C=C\CCNC(=O)OCC(=O)NC [Compound 7, 2-(Methylamino)-2-oxoethyl ((3Z)-hex-3-en-1-yl)carbamate] here?
The melting point was 72 to 74 °C.

For CC/C=C/CCNC(=O)OCC(=O)NC [Compound 8, 2-(Methylamino)-2-oxoethyl ((3E)-hex-3-en-1-yl)carbamate], which melting point is on record?
Its melting point is 88 to 90 °C.

For CCC/C=C\CNC(=O)OCC(=O)NC [Compound 9, 2-(Methylamino)-2-oxoethyl ((2Z)-hex-2-en-1-yl)carbamate], which melting point is on record?
The melting point was 74 to 76 °C.

Which melting point does the source give for CCCCCCNC(=O)OCC(=O)NC [Compound 10, 2-(Methylamino)-2-oxoethyl (hex-1-yl)carbamate] here?
The melting point was 86 to 88 °C.

With CCCCCCNC(=O)OC(C)C(N)=O (stereo not drawn) [Compound 11, 2-Amino-1-methyl-2-oxoethyl (hex-1-yl)carbamate] as the compound, how does the melting point read?
The melting point was 123 to 125 °C.

With CCCCCCCNC(=O)OCC(=O)NC [Compound 13, 2-(Methylamino)-2-oxoethyl (hept-1-yl)carbamate] as the compound, how does the IC50 [1] read?
Its IC50 is 91 nM.

And the melting point?
The melting point was 87 to 89 °C.

Which melting point does the source give for CCCCC/C=C/CNC(=O)OCC(=O)NC [Compound 14, 2-(Methylamino)-2-oxoethyl ((2E)-oct-2-en-1-yl)carbamate] here?
The melting point was 80 to 82 °C.

With CCCCC/C=C/CNC(=O)OCC(N)=O [Compound 15, 2-Amino-2-oxoethyl ((2E)-oct-2-en-1-yl)carbamate] as the compound, how does the melting point read?
Its melting point is 126 to 128 °C.

With CCCC/C=C\CCNC(=O)OCC(=O)NC [Compound 16, 2-(Methylamino)-2-oxoethyl ((3Z)-oct-3-en-1-yl)carbamate] as the compound, how does the melting point read?
Its melting point is 62 to 64 °C.

Which melting point does the source give for CCCC/C=C\CCNC(=O)OCC(N)=O [Compound 17, 2-Amino-2-oxoethyl ((3Z)-oct-3-en-1-yl)carbamate] here?
Its melting point is 113 to 115 °C.

Which melting point does the source give for CC/C=C\CCCCNC(=O)OCC(N)=O [Compound 18, 2-Amino-2-oxoethyl ((5Z)-oct-5-en-1-yl)carbamate] here?
The melting point was 122 to 124 °C.

Which melting point does the source give for CC/C=C\CCCCNC(=O)OCC(=O)NC [Compound 19, 2-(Methylamino)-2-oxoethyl ((5Z)-oct-5-en-1-yl)carbamate] here?
Its melting point is 69 to 71 °C.

With C=CCCCCCCNC(=O)OCC(N)=O [Compound 20, 2-Amino-2-oxoethyl (oct-7-en-1-yl)carbamate] as the compound, how does the melting point read?
The melting point was 122 to 124 °C.

With C=CCCCCCCNC(=O)OCC(=O)NC [Compound 21, 2-(Methylamino)-2-oxoethyl (oct-7-en-1-yl)carbamate] as the compound, how does the melting point read?
The melting point was 72 to 74 °C.

With CNC(=O)COC(=O)NC1CCCCCCC1 [Compound 22, 2-(Methylamino)-2-oxoethyl (cyclooct-1-yl)carbamate] as the compound, how does the IC50 [1] read?
The IC50 was 696 nM.

And the melting point?
The melting point was 81 to 83 °C.

Which melting point does the source give for CCCCCCCCNC(=O)OC(C)C(N)=O (stereo not drawn) [Compound 23, 2-Amino-1-methyl-2-oxoethyl (oct-1-yl)carbamate] here?
The melting point was 130 to 132 °C.

For CCCCCCC(C)NC(=O)OCC(=O)NC (stereo not drawn) [Compound 24, 2-(Methylamino)-2-oxoethyl (1-methylhept-1-yl)carbamate], which IC50 [1] is on record?
The IC50 was 89 nM.

With CCCCCCCCCNC(=O)OCC(=O)NC [Compound 25, 2-(Methylamino)-2-oxoethyl (non-1-yl)carbamate] as the compound, how does the melting point read?
The melting point was 95 to 97 °C.

For CCCCCCCCCCNC(=O)OCC(=O)NC [Compound 26, 2-(Methylamino)-2-oxoethyl decylcarbamate], which melting point is on record?
Its melting point is 98 to 100 °C.

With CCCCCCCCCCNC(=O)OC(C)C(N)=O (stereo not drawn) [Compound 27, 2-Amino-1-methyl-2-oxoethyl (dec-1-yl)carbamate] as the compound, how does the melting point read?
Its melting point is 133 to 135 °C.

With CCCCCCCCCC(C)NC(=O)OCC(=O)NC (stereo not drawn) [Compound 28, 2-(Methylamino)-2-oxoethyl (1-methyldec-1-yl)carbamate] as the compound, how does the melting point read?
The melting point was 71 to 73 °C.

With CNC(=O)COC(=O)NC1CCCCCCCCCCC1 [Compound 29, 2-(Methylamino)-2-oxoethyl (cyclododec-1-yl)carbamate] as the compound, how does the melting point read?
The melting point was 171 to 173 °C.

With CCCCCCCCCCCCNC(=O)OCC(=O)NC [Compound 30, 2-(Methylamino)-2-oxoethyl (dodec-1-yl)carbamate] as the compound, how does the melting point read?
Its melting point is 103 to 105 °C.

For CC/C=C\CCCCCCCCCCNC(=O)OCC(N)=O [Compound 31, 2-amino-2-oxoethyl ((11Z)-tetradec-11-en-1-yl)carbamate], which melting point is on record?
Its melting point is 120 to 123 °C.

With CC/C=C\CCCCCCCCCCNC(=O)OCC(=O)NC [Compound 32, 2-(Methylamino)-2-oxoethyl ((11Z)-tetradec-11-en-1-yl)carbamate] as the compound, how does the melting point read?
The melting point was 79 to 81 °C.

Which melting point does the source give for CCCCCCCCCCCCCCNC(=O)OCC(=O)NC [Compound 33, 2-(Methylamino)-2-oxoethyl (tetradec-1-yl)carbamate] here?
The melting point was 106 to 108 °C.

With CCCCCC/C=C\CCCCCCCCNC(=O)OCC(N)=O [Compound 34, 2-Amino-2-oxoethyl ((9Z)-hexadec-9-en-1-yl)carbamate] as the compound, how does the melting point read?
The melting point was 127 to 129 °C.

With CCCCCC/C=C\CCCCCCCCNC(=O)OCC(=O)NC [Compound 35, 2-(Methylamino)-2-oxoethyl ((9Z)-hexadec-9-en-1-yl)carbamate] as the compound, how does the melting point read?
The melting point was 69 to 71 °C.

With CCCCCCCCCCCCC(C)NC(=O)OCC(=O)NC (stereo not drawn) [Compound 36, 2-(Methylamino)-2-oxoethyl (1-methyltridecyl)carbamate] as the compound, how does the melting point read?
The melting point was 82 to 84 °C.

Which melting point does the source give for CCCCCCCCCCCCCCCNC(=O)OCC(=O)NC [Compound 37, 2-(Methylamino)-2-oxoethyl (pentadec-1-yl)carbamate] here?
Its melting point is 107 to 109 °C.

With CCCCCCCCCCC/C=C\CCCCCNC(=O)OCC(N)=O [Compound 39, 2-Amino-2-oxoethyl ((6Z)-octadec-6-en-1-yl)carbamate] as the compound, how does the melting point read?
Its melting point is 100 to 102 °C.

For CCCCCCCCCCC/C=C\CCCCCNC(=O)OCC(=O)NC [Compound 40, 2-(Methylamino)-2-oxoethyl ((6Z)-octadec-6-en-1-yl)carbamate], which melting point is on record?
The melting point was 72 to 74 °C.

Which melting point does the source give for CCCCCCCCCCCCCCCCCCCNC(=O)OCC(=O)NC [Compound 41, 2-(Methylamino)-2-oxoethyl ((methyl)octadec-1-yl)carbamate] here?
The melting point was 85 to 87 °C.

With CCCCCCCCCCCCCCCCCCCNC(=O)OCC(=O)NC [Compound 43, 2-(Methylamino)-2-oxoethyl (nonadec-1-yl)carbamate] as the compound, how does the melting point read?
Its melting point is 113 to 115 °C.

Which melting point does the source give for CC/C=C/C/C=C/C/C=C/CCCCCCCCCCNC(=O)OCC(=O)NC [Compound 45, 2-(Methylamino)-2-oxoethyl ((11E,14E,17E)-icosa-11,14,17-trien-1-yl)carbamate] here?
Its melting point is 57 to 59 °C.

For CCCCC/C=C/C/C=C/CCCCCCCCCCNC(=O)OCC(=O)NC [Compound 46, 2-(Methylamino)-2-oxoethyl ((11E,14E)-icosa-11,14-dien-1-yl)carbamate], which melting point is on record?
The melting point was 58 to 60 °C.

What does the source list for CCCCCCCC/C=C/CCCCCCCCCCNC(=O)OCC(=O)NC [Compound 47, 2-(Methylamino)-2-oxoethyl ((11E)-icosa-11-en-1-yl)carbamate]?
IC50 [1]: 154 nM; melting point: 77 to 79 °C
